Measurements published in ChEMBL document CHEMBL1129804, “First synthesis and cytotoxic activity of novel docetaxel analogs modified at the C18-position” (1997).
In brackets after ≈: the same amount, converted by molar mass.

What was measured:
Format in all cases: functional
[1] = test system: PC-6; test: Compound was tested for growth inhibitory activity after 72 hr of continuous exposure against vincristine resistant cancer cell line PC-6/VCR; details: Homo sapiens, PC-6, 72 h
[2] = test system: P388; test: Compound was tested for growth inhibitory activity after 72 hr of continuous exposure against mouse leukemia P388; details: P388, 72 h
[3] = test system: PC-6; test: Compound was tested for growth inhibitory activity after 72 hr of continuous exposure against human lung cancer cell line PC-6; details: PC-6, 72 h

SMILES | GI50 [2] [µg/mL] | GI50 [1] [µg/mL] | GI50 [3] [µg/mL]
CCC1=C2[C@@H](OC(C)=O)C(=O)[C@@]3(C)[C@H]([C@H](OC(=O)c4ccccc4)[C@](O)(C[C@@H]1OC(=O)[C@H](O)[C@@H](NC(=O)OC(C)(C)C)c1ccccc1)C2(C)C)[C@]1(OC(C)=O)CO[C@@H]1C[C@@H]3O | 0.00745 (≈ 0.00862 µM) | 0.167 (≈ 0.193 µM) | 0.0103 (≈ 0.0119 µM)
CC(=O)O[C@@]12CO[C@@H]1C[C@H](O)[C@@]1(C)C(=O)[C@H](O)C3=C(C)[C@@H](OC(=O)[C@H](O)[C@@H](NC(=O)OC(C)(C)C)c4ccccc4)C[C@@](O)([C@@H](OC(=O)c4ccccc4)[C@H]21)C3(C)C.O.O.O [DOCETAXEL] | 0.00162 | 0.173 | 0.00116
CC(=O)O[C@@]12CO[C@@H]1C[C@H](O)[C@@]1(C)C(=O)[C@H](O)C3=C(CN4CCOCC4)[C@@H](OC(=O)[C@H](O)[C@@H](NC(=O)OC(C)(C)C)c4ccccc4)C[C@@](O)([C@@H](OC(=O)c4ccccc4)[C@H]21)C3(C)C | > 1 | > 1 | > 1
CC(=O)OCC1=C2[C@@H](O)C(=O)[C@@]3(C)[C@H]([C@H](OC(=O)c4ccccc4)[C@](O)(C[C@@H]1OC(=O)[C@H](O)[C@@H](NC(=O)OC(C)(C)C)c1ccccc1)C2(C)C)[C@]1(OC(C)=O)CO[C@@H]1C[C@@H]3O | 0.181 (≈ 0.209 µM) | > 1 | 0.163 (≈ 0.188 µM)
CC(=O)O[C@H]1C(=O)[C@@]2(C)[C@H]([C@H](OC(=O)c3ccccc3)[C@]3(O)C[C@H](OC(=O)[C@H](O)[C@@H](NC(=O)OC(C)(C)C)c4ccccc4)C(C=O)=C1C3(C)C)[C@]1(OC(C)=O)CO[C@@H]1C[C@@H]2O | > 1 | > 1 | 0.699 (≈ 0.809 µM)

The next lines start with results.

GI50 [2] [µg/mL] | SMILES | GI50 [1] [µg/mL] | GI50 [3] [µg/mL]
0.393 (≈ 0.433 µM) | CC(=O)NCC1=C2[C@@H](OC(C)=O)C(=O)[C@@]3(C)[C@H]([C@H](OC(=O)c4ccccc4)[C@](O)(C[C@@H]1OC(=O)[C@H](O)[C@@H](NC(=O)OC(C)(C)C)c1ccccc1)C2(C)C)[C@]1(OC(C)=O)CO[C@@H]1C[C@@H]3O | > 1 | 0.131 (≈ 0.144 µM)
0.00837 (≈ 0.01 µM) | CC(=O)O[C@@]12CO[C@@H]1C[C@H](O)[C@@]1(C)C(=O)[C@H](O)C3=C(CC#N)[C@@H](OC(=O)[C@H](O)[C@@H](NC(=O)OC(C)(C)C)c4ccccc4)C[C@@](O)([C@@H](OC(=O)c4ccccc4)[C@H]21)C3(C)C | 0.754 (≈ 0.905 µM) | 0.00481 (≈ 0.00578 µM)
0.0401 (≈ 0.045 µM) | CC(=O)O[C@H]1C(=O)[C@@]2(C)[C@H]([C@H](OC(=O)c3ccccc3)[C@]3(O)C[C@H](OC(=O)[C@H](O)[C@@H](NC(=O)OC(C)(C)C)c4ccccc4)C(CN=[N+]=[N-])=C1C3(C)C)[C@]1(OC(C)=O)CO[C@@H]1C[C@@H]2O | 0.39 (≈ 0.438 µM) | 0.0524 (≈ 0.0588 µM)
